This note sets out measurements from a melting point compilation (Tetko et al.; mined from patent text by program, amines drawn as free bases though some values may be those of a salt).

By melting point is commonly meant the temperature, or range, at which the solid turns liquid.

Take `CC(C)n1nc(-c2sc(NC3CCCCC3)nc2-c2ccccc2)ccc1=O`: the melting point was in the range of 149 to 151 °C.

The molecule `C=CC(=O)NC(=O)N1CC1C#N` (centres undefined) showed a melting point of 158 to 160 °C.

As for `O=C1c2ccccc2-c2c1c(-n1ccnc1)nc1ccc(Br)cc21`, the melting point fell in the range of 283 to 285 °C.

`O=C1C(Cc2ccccc2C(F)F)c2ccccc2C12COc1cc3c(cc12)OCCO3` (centres undefined) registered a melting point of 191 to 193 °C.

`O=C1c2ccccc2-n2c(nc3ccccc3c2=O)CN1CCc1ccccc1`: the melting point was 208 to 210 °C.

Take `CC(=O)c1cccc2nc(SCCCN3CCCN(CC(=O)Nc4c(C(C)C)cccc4C(C)C)CC3)oc12`: the melting point fell in the range of 86 to 88 °C.

For the molecule `O=C1OC2CC1(O)CC(O)C2O` (centres undefined), the melting point is 184 to 188 °C.

In turn, `CCc1cc2[nH]c(=O)oc2cc1NCC1CCCOC1` (centres undefined) yielded a melting point of 148 °C.

In turn, `Cc1ccc(S(=O)(=O)OCCc2ccc3[nH]cc(S(=O)(=O)c4ccccc4)c3c2)cc1` gave a melting point of 60 to 63 °C.

Regarding `COCC1COc2cc3ncnc(Nc4cc(C)cc(C)c4)c3cc2O1` (centres undefined), the melting point lay within 268 to 270 °C.

For the molecule `CC(=O)SCC(Cc1ccccc1)C(=O)Nc1cc(C(=O)O)cc(C(F)(F)F)c1` (centres undefined), the melting point was 62 to 67 °C.

The molecule `c1ccc(CSc2nc3ccccn3n2)cc1` returned a melting point of 79 to 81 °C.

In turn, `CC(C)(C)C(=O)OCCOCn1cnc2c(=O)[nH]c(N)nc21` showed a melting point of 245 to 246 °C.

For the molecule `CCCCOC(=O)NNc1n[nH]c2cc(Cl)ccc12`, the melting point was in the range of 150 to 152 °C.

Turning to `O=C(c1ccc([N+](=O)[O-])cc1)c1c(Cl)cc(O)cc1Cl`, the melting point was in the range of 118 to 120 °C.

`CNC(=O)N(N=C(C)C)C(=O)c1ccc(Cl)cc1` registered a melting point of 119 to 123 °C.

The molecule `N#Cc1ccc(-c2cncc(OC3SCC(O)C(O)C3O)c2)cc1C#N` (centres undefined) yielded a melting point of 192 °C.

As to `Cc1cccc(C)c1-c1cc2cnc(N)nc2n(C)c1=N`, the melting point is 197 to 198 °C.

The molecule `CCCc1c(OCc2ccc(C=CC(=O)O)cc2OC)ccc(C(C)=O)c1O` returned a melting point of 144 to 146 °C.

Turning to `CC(C)(C)OC(=O)C=C(O)c1cccnc1Oc1ccc(F)cc1`, the melting point was in the range of 87 to 89 °C.

In turn, `CN(CCOc1ccc(CCOCCc2ncn[nH]2)cc1)c1nc2ccccc2o1` returned a melting point of 127 to 129 °C.

The molecule `CN(CCO)c1nc(N)nc(-c2cc(Cl)ccc2Cl)n1` displayed a melting point of 153 to 155 °C.

The molecule `CCCCc1cn(Cc2ccc(-c3ccccc3C(=O)O)cc2)c2c(c1=O)CC(C)CC2` (centres undefined) returned a melting point of 255 °C.

Turning to `COc1cc(COc2cc(C=O)n(-c3ccccc3)n2)ccc1OCc1nc(-c2ccco2)oc1C`, the melting point was in the range of 103 to 104 °C.

Molecule `COc1ccc(-c2ocnc2-c2cc(OC)c([N+](=O)[O-])c(OC)c2)cc1O` displayed a melting point of 186 to 188 °C.

For `N#Cc1ccc2c(c1)c(C1CCC(=O)CC1)cn2Cc1ccccc1`, the melting point lay within 115 to 126 °C.

Take `Cc1ccc(Nc2c(N)cc(C(=O)O)cc2S(N)(=O)=O)c(C)c1`: the melting point lay within 241 to 242 °C.

Turning to `OC(c1nn(-c2c(Cl)cc(C(F)(F)F)cc2Cl)cc1C1CC1(Br)Br)C(F)(F)F` (centres undefined), the melting point lay in the range of 119 to 121 °C.

In the case of `CNC1(CC2CCCCC2)C(=O)N(S(=O)(=O)c2ccc([N+](=O)[O-])cc2OC)c2ccc(Cl)cc21` (centres undefined), the melting point stood at 207 °C.

Take `CSc1ccc(Oc2ccc([N+](=O)[O-])cc2)cc1`: the melting point lay in the range of 59 to 61 °C.

On to `Oc1ccc(Oc2ccc(OCC(O)CCc3cccnc3)cc2)cc1` (centres undefined), for which the melting point fell in the range of 89 to 91 °C.

`CC(C)c1cc(-c2c3ccccc3c(Br)c3sc4ccccc4c23)cc(C(C)C)c1O[C@H](C)C(=O)O` displayed a melting point of 214 to 215 °C.

In turn, `O=c1c(-c2cc[nH]n2)coc2ccccc12` came in with a melting point of 141 to 142 °C.

For `CCCOC(=O)Oc1ccc(-c2ccc(C#N)cc2)cc1`, the melting point lay in the range of 70.2 to 70.9 °C.
